The values that follow are results of earlier work, collected in paper PMC12332767 (RSC Chemical Biology, 2025).

Turning to heparin [HI], the Insoluble in chloroform (HI alone) was 98.5%. For the same substance, the “Soluble in chloroform in interaction with PC” value (HI in interaction with PC) was 74%.
